≈ marks a conversion by molar mass, not a printed value. Structures can show the parent of a compound that is named as a salt. Where two headings read alike, the source gives them in different places.
Legend:
[1] = target: Leucyl-tRNA synthetase (LeuRS) (Escherichia coli (strain K12), UniProt P07813); test: Leucyl-tRNA synthetase enzyme inhibition (AMP-Glo; single point % inhibition at 100 μM and IC50); assay type: biochemical
[2] = test system: bacteria (ATCC reference strains); test: Antibacterial activity, MIC by broth micro-dilution (CLSI)
[3] = Human cell viability / cytotoxicity (CellTiter-Glo, 24 hours); assay type: cell-based; conditions: human, HepG2 cells (ATCC HB-8065); HepG2 ATCC HB-8065, 24 hours; read-out: Cytotoxicity in HepG2 ATCC HB-8065 Cell Line, IC50
Protocol: Study 3—Human Cell Viability
Compounds were assessed for potential non-specific cytotoxic effects against a human hepatic cell line (HepG2 ATCC HB-8065). 96-well plates were seeded with HepG2 cells in concentration of 15,000 cells per well in 100 μL of MEM growth media completed with 1% NEAA and 1% sodium pyruvate. Border wells were filled with 100 μL of sterile PBS. Two days upon cells incubation, the compounds were added. Compound dilutions were prepared in 96-well V-bottom plate in pure DMSO. Growth media from 5 plates were aspirated and replaced with 98.7 μL of fresh growth media. 1.28 μL of compounds prepared in V-bottom plates were transferred with multichannel pipette into test plates (78.1× dilution). Final DMSO concentration was 1.28% per well. In control wells, 1.28 μL of DMSO was added in 98.7 μL of media. Compounds were tested in duplicates. Cells were incubated with compounds for 24 hours when cell viability was assessed by measuring ATP levels. ATP levels were measured by adding 50 μL of CellTiter-Glo reagent to each well and after 5 minutes of incubation luminescence was measured with SpectraMax i3. The potential effect of tested compounds on cell viability was determined by comparing the signal obtained in presence of different concentrations of the compounds with those obtained in the presence of DMSO only. The potential effects were then calculated and presented as IC50 values (μg/mL).

[4] = E. coli LeuRS, read-out: Enzyme Inhibition - IC50, E. coli LeuRS
[5] = Acinetobacter baumannii, read-out: Antibacterial Activity (MIC), E = A. baumannii B1931
[6] = Enterobacter cloacae, read-out: Antibacterial Activity (MIC), B = Enterobacter cloacae B1966
[7] = Escherichia coli, ATCC25922, read-out: Antibacterial Activity (MIC), A = E. coli ATCC 25922
[8] = Haemophilus influenzae, ATCC49247, read-out: Antibacterial Activity (MIC), F = H. influenzae ATCC 49247
[9] = Klebsiella pneumoniae, ATCC700603, read-out: Antibacterial Activity (MIC), C = K. pneumoniae ATCC 700603
[10] = Pseudomonas aeruginosa, ATCC27853, read-out: Antibacterial Activity (MIC), D = P. aeruginosa ATCC 27853
[11] = Escherichia coli, BAA2469, read-out: Antibacterial Activity (MIC), G = E. coli BAA-2469

Leucyl-tRNA synthetase (LeuRS), sequence (P07813 whole entry, looked up): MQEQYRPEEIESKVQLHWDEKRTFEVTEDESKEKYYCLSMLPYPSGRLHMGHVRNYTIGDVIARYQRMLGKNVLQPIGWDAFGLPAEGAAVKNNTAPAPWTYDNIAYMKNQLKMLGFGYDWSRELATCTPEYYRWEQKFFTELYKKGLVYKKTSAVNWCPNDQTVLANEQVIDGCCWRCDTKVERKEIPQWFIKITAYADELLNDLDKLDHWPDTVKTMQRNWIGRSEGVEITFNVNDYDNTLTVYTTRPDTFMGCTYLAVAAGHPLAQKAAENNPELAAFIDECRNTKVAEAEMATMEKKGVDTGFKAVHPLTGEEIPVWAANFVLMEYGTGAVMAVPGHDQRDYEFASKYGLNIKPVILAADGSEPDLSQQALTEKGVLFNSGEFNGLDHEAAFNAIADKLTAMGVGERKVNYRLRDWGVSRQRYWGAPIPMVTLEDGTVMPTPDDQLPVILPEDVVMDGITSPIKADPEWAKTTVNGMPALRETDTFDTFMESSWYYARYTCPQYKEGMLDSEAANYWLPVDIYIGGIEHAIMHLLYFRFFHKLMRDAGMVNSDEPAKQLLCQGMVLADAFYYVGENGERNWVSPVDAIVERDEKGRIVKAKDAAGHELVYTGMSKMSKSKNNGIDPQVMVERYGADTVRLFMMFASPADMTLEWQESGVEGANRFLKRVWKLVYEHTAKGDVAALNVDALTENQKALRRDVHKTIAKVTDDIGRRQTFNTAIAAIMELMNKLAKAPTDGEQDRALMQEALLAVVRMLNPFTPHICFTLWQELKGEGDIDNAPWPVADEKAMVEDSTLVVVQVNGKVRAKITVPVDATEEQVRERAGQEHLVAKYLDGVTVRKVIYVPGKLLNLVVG

| SMILES | IC50 [1, 4] | MIC [2, 5] | MIC [2, 6] | MIC [2, 7] | MIC [2, 8] | MIC [2, 9] | MIC [2, 10] | IC50 at 24 h [3] | IC50 [1] | MIC [2, 11] |
| --- | --- | --- | --- | --- | --- | --- | --- | --- | --- | --- |
| CC(C)C[C@H](N)C(=O)N=S(N)(=O)c1cccc(Cl)c1F (stereo partly drawn) [ANASIA-001, (2S)-2-amino-N-(amino(3-chloro-2-fluorophenyl)(oxo)-λ6-sulfanylidene)-4-methylpentanamide 2,2,2-trifluoroacetate] | 0.429 µM | > 64 mg/L | > 64 mg/L | 32 mg/L (≈ 99.4 µM) | > 64 mg/L | > 64 mg/L | > 64 mg/L | > 64 mg/L |  |  |
| CC(C)C[C@H](N)C(=O)N=[S@@](N)(=O)c1ccc(Cl)s1 [ANASIA-009-2] | 0.149 µM | 64 mg/L (≈ 207 µM) | 32 mg/L (≈ 103 µM) | 4 mg/L (≈ 12.9 µM) | 8 mg/L (≈ 25.8 µM) | 32 mg/L (≈ 103 µM) | > 64 mg/L | > 64 mg/L |  |  |
| CC(C)C[C@H](N)C(=O)N=[S@](N)(=O)c1cccc(Cl)c1F.Cl [ANASIA-001-1] |  | > 64 mg/L | > 64 mg/L | 16 mg/L | 32 mg/L | > 64 mg/L | > 64 mg/L | > 64 mg/L | 0.535 µM |  |
| CC(C)C[C@H](N)C(=O)N=S(N)(=O)c1sccc1Cl (some centres unmarked) [ANASIA-012] | 0.155 µM | > 64 mg/L | 64 mg/L (≈ 207 µM) | 8 mg/L (≈ 25.8 µM) | 16 mg/L (≈ 51.6 µM) | > 64 mg/L | > 64 mg/L | > 64 mg/L |  | 32 mg/L (≈ 103 µM) |
| Cc1csc(S(N)(=O)=NC(=O)[C@@H](N)CC(C)C)n1 (stereo partly drawn) [ANASIA-004, (2S)-2-amino-N-(amino(4-methylthiazol-2-yl)(oxo)-λ6-sulfanylidene)-4-methyl pentanamide hydrochloride] | 0.0916 µM | 64 mg/L | > 64 mg/L | 16 mg/L | 8 mg/L | > 64 mg/L | 64 mg/L | > 64 mg/L |  |  |
| CC(C)C[C@H](N)C(=O)N=[S@](N)(=O)c1scc(Cl)c1Cl.Cl [ANASIA-081-1] |  | 32 mg/L |  | 2 mg/L | 1 mg/L | 256 mg/L | > 64 mg/L | > 64 mg/L | 0.0339 µM | 8 mg/L |
| CC(C)C[C@H](N)C(=O)N=[S@@](N)(=O)c1cccc(Cl)c1.Cl [ANASIA-002-2] | 1.05 µM | > 64 mg/L | > 64 mg/L | 64 mg/L | > 64 mg/L | > 64 mg/L | > 64 mg/L | > 64 mg/L |  |  |
| CC(C)C[C@H](N)C(=O)N=[S@](N)(=O)c1cccc(OC(F)F)c1.Cl [ANASIA-088-1] |  | > 64 mg/L | 64 mg/L | 4 mg/L | 4 mg/L | > 256 mg/L | > 64 mg/L | > 64 mg/L | 0.0753 µM | 32 mg/L |
| CC(C)C[C@H](N)C(=O)N=S(N)(=O)c1ccc(C(F)F)s1 (some centres unmarked) [ANASIA-017] |  | > 64 mg/L | > 64 mg/L | 16 mg/L (≈ 49.2 µM) | 8 mg/L (≈ 24.6 µM) | > 64 mg/L | > 64 mg/L | > 64 mg/L | 0.145 µM |  |
| Cc1ccsc1[S@@](N)(=O)=NC(=O)[C@@H](N)CC(C)C.Cl [ANASIA-015-1] |  | 64 mg/L | 16 mg/L | 2 mg/L | 8 mg/L | 16 mg/L | 64 mg/L | > 64 mg/L | 0.0565 µM | 5.66 mg/L |
| CC(C)C[C@H](N)C(=O)N=S(N)(=O)c1cccc(Cl)c1 (some centres unmarked) [ANASIA-002] | 0.11 µM | > 45.3 mg/L | > 45.3 mg/L | 2.83 mg/L (≈ 9.31 µM) | 5.66 mg/L (≈ 18.6 µM) | > 22.6 mg/L | > 64 mg/L | > 64 mg/L |  |  |
| CC(C)C[C@H](N)C(=O)N=[S@](N)(=O)c1cc(F)ccc1F.Cl [ANASIA-024-1] |  | > 64 mg/L | > 64 mg/L | 16 mg/L | 16 mg/L | > 64 mg/L | > 64 mg/L | > 64 mg/L | 0.141 µM |  |
| CC(C)C[C@H](N)C(=O)N=[S@](N)(=O)c1ccccc1.Cl [ANASIA-003-1, (S)-2-amino-N—((S)-amino(oxo)(phenyl)-λ6-sulfanylidene)-4-methylpentanamide hydrochloride] | 0.0615 µM | 64 mg/L | 16 mg/L | 4 mg/L | 8 mg/L | 16 mg/L | 64 mg/L | > 64 mg/L |  |  |
| Cc1cccc(S(N)(=O)=NC(=O)[C@@H](N)CC(C)C)c1 (some centres unmarked) [ANASIA-005] | 0.381 µM | 64 mg/L (≈ 226 µM) | 32 mg/L (≈ 113 µM) | 8 mg/L (≈ 28.2 µM) | 32 mg/L (≈ 113 µM) | 32 mg/L (≈ 113 µM) | > 64 mg/L | > 64 mg/L |  |  |
| CC(C)C[C@H](N)C(=O)N=[S@](N)(=O)c1cccc(Br)c1.Cl [ANASIA-044-1] |  | 64 mg/L | 16 mg/L | 2 mg/L | 2 mg/L | 64 mg/L | > 64 mg/L | > 64 mg/L | 0.071 µM |  |
| Cc1ccc([S@@](N)(=O)=NC(=O)[C@@H](N)CC(C)C)s1.Cl [ANASIA-014-1] |  | 64 mg/L | 16 mg/L | 4 mg/L | 4 mg/L | 64 mg/L | > 64 mg/L | > 64 mg/L | 0.0811 µM |  |
| CC(C)C[C@H](N)C(=O)N=S(N)(=O)c1ccsc1 (some centres unmarked) [ANASIA-008] | 0.144 µM | 32 mg/L (≈ 116 µM) | 16 mg/L (≈ 58.1 µM) | 2 mg/L (≈ 7.26 µM) | 16 mg/L (≈ 58.1 µM) | 8 mg/L (≈ 29 µM) | 32 mg/L (≈ 116 µM) | > 64 mg/L |  |  |
| CC(C)C[C@H](N)C(=O)N=[S@](N)(=O)c1cccc(C(C)C)c1.Cl [ANASIA-043-1] |  | > 64 mg/L | > 64 mg/L | > 64 mg/L | 45.3 mg/L | > 64 mg/L | > 64 mg/L | > 64 mg/L | 0.112 µM |  |
| CC(C)C[C@H](N)C(=O)N=[S@](N)(=O)c1cccc(Cl)c1.Cl [ANASIA-002-1] |  | 32 mg/L | 8 mg/L | 1 mg/L | 2 mg/L | 32 mg/L | > 64 mg/L | > 64 mg/L | 0.0275 µM | 4 mg/L |
| CC(C)C[C@H](N)C(=O)N=S(N)(=O)c1ccccc1 (some centres unmarked) [ANASIA-003] | 0.0929 µM | 32 mg/L (≈ 119 µM) | 16 mg/L (≈ 59.4 µM) | 2.83 mg/L (≈ 10.5 µM) | 16 mg/L (≈ 59.4 µM) | 8 mg/L (≈ 29.7 µM) | 50.8 mg/L (≈ 189 µM) | > 64 mg/L |  |  |
